Experimental data published in US7417025B2, “Use of poly-α2,8-sialic acid mimetic peptides to modulate NCAM functions” (Centre National de la Recherche Scientifique, priority 2002, dated 2008).
Entries after “also recorded” stand apart in the source; their conditions may differ.

How the values were obtained:
[1] = tested on: 30H12 monoclonal antibody; experiment: Competitive binding to PSA-NCAM expressing cells (30H12); design: dose or concentration left out as unconfirmed
Protocol: FIGS. 12B, 12C and 12D: competitive binding to PSA-NCAM expressing cells. B: pre-incubation of p65 (1 mM) or p66 (1 mM) with MenB anti-PSA antibody. C: 30H12 anti-PSA antibody without peptide. […]
(§1) The specificity of p65 and p66 peptides was tested in a competition assay using anti-PSA antibodies and PSA-NCAM expressing cells. […] The binding specificity was examined in greater detail by testing peptide recognition by another anti-PSA mononclonal antibody (MenB). […] Thus, p65 and p66 mimotopes appear to be specific for a unique (idiotypic) determinant.

[2] = tested on: subventricular zone explants (neuronal precursors); experiment: Subventricular zone (SVZ) explant culture: cell migration in vitro; assay type: cell-based, mouse; details: 0.4 μM peptide
MenB anti-PSA antibody = experiment: Competitive binding to PSA-NCAM expressing cells (MenB)
Protocol: FIGS. 12B, 12C and 12D: competitive binding to PSA-NCAM expressing cells. B: pre-incubation of p65 (1 mM) or p66 (1 mM) with MenB anti-PSA antibody. C: 30H12 anti-PSA antibody without peptide. D: pre-incubation of p65 (1 mM) or p66 (1 mM) with 30H12 anti-PSA antibody.
as §1

30H12 antibody = experiment: ELISA with peptide-BSA conjugate on 30H12-coated plates; assay type: binding; details: no competitor, FIG. 12A
Text: FIG. 12A: ELISA using 30H12 anti-PSA monoclonal antibody-coated plates.
The specificity of the cyclic peptides was investigated in an ELISA assay using plates coated with 30H12 antibody, following the protocol as described above for the competitive ELISA, with the exception that the competitor was omitted.

[3] = tested on: subventricular zone explants (neuronal precursors); experiment: Subventricular zone (SVZ) explant culture: cell migration in vitro; assay type: cell-based, mouse
Protocol: Cultures of SVZ explants were performed as described in Chazal et al., precited. Briefly, 1-day-old mice were killed by rapid decapitation. Brains were dissected out and sectionned by Vibratome (Leica). The SVZ from the lateral wall of the anterior lateral ventricle horn was dissected out in HBSS medium (LIFE TECHNOLOGIES) and cut into 200-300 μm diameter explants. The explants were mixed with Matrigel (BECKTON DICKINSON) and cultured in four-well dishes. After polymerisation, the gel was overlaid with 400 μl of serum-free medium containing B-27 supplement (LIFE TECHNOLOGIES), in the presence or the absence of 40 μM of peptides (p65, p66, reverse p65, p21 or p22) and 70 U of Endo N per milliliter.
(§2) After 48 h in culture, explants were examining directly (SVZ) or after overnight fixation with a 4% paraformaldehyde solution in PBS and immunostaining (DRGs). Observation was done using 2, 5×, 5×, 10× and 32× objectives (Axiovert 35M, ZEISS). Images were collected with a video camera (Cool View, PHOTONIC SCIENCE) and analysed using image-processing software (Visiolab1000, BIOCOM). Mean migration distance (calculated on five different experiments, including at least five explants per condition) or mean length of the longest neurite (calculated on two different experiments, including at least eight explants per condition), was the distance in micrometers between the explant edge and the border of the cell migration front. Four measurements were performed for each explant. The significance of the differences between the control and the different experimental conditions was calculated by Student's t test.

chick retina axons = experiment: Intravitreal injection in chick embryo, retinal whole mount: axon fasciculation and guidance in vivo; details: injected into chicken embryo eyes at E3, retina observed at E9
Protocol: The dashed rectangle indicates the area from which photographs were taken. Arrows point toward the optic fissure. Axons of E9 chick retina injected at E3 with the reverse peptide (C,F) or the p65 peptide (D,G,E,H). Arrowheads show examples of axons that leave their fascicle and run perpendicularly to it.
Injections were performed as described in Monnier et al. (Developmental Biology, 2001, 229, 1-14). Briefly, a 2×2 cm window was cut into the shell over E3 chick embryos. One μl of Fast green with 10 mM of p65 or reverse peptide was injected into the right eye vitreous body using a capillary. After a five-days incubation at 37° C., (E8) retinae were dissected, spread onto nitrocellulose filters (MILIPORE), and fixed with 4% paraformaldehyde solution in PBS. Two small DiI (1,1′-dioctadecyl-3,3,3′,3′-tetramethylindocarbocyanine perchlorate) crystals were applied dorsally to the optic fissure. Retinae were stored in the dark at 37° C. for 10 days until the dye reached the axonal growth cones in the fissure, mounted in glycerol:PBS (9:1, v:v) and analysed using confocal microscopy.

[4] = tested on: Mouse dorsal root ganglion explants (E13.5); experiment: Dorsal root ganglion explant culture: neurite outgrowth and fasciculation; assay type: cell-based
Protocol: E13.5 DRGs were dissected out from mice embryos in HBSS medium and seeded on glass coverslips coated with polylysine or with peptides linked to BSA. Explants were cultured in the presence or the absence of the peptides under soluble form (40 μM) in two ml of neurobasal medium (DMEM/Ham's F12, 3:1 (V/V), GIBCO, buffered with 20 mM Hepes), supplemented as described in Faivre-Sarrailh et al., J. Cell. Sci., 1999, 18, 3015-3027 and Chazal et al., J.Neurosci., 2000, 20, 1446-1457.
Fixed DRGs (Dorsal Root ganglia) explants and sections were incubated at 4° C. respectively 2 hr with an anti-neurofilament (SMI-31, dilution 1:800, STERNBERGER MONOCLONALS) and overnight with an anti-PSA antibody (dilution 1:200, Rougon et al, J. Cell. Biol., 1986, 103, 2429-2437). Revelation was performed by 1 hr incubation with the corresponding fluorescent-labeled secondary antibody (Goat anti-mouse IgM or IgG conjugated with texas red, IMMUNOTECH)
as §2
Mouse dorsal root ganglion explants (E13.5) were cultured in the presence of p65 and p66 cyclic mimetic peptides, either in soluble form or coated on the microplates as BSA conjugates. Cells cultured in the absence of peptides or in the presence of reverse peptides (coated or in soluble form) were used as controls.

[5] = peptide in coated form (BSA conjugate)
[6] = peptide in soluble form (40 μM), versus controls

CSKIASMETGCG [p66]
Binding of 30H12 monoclonal antibody to PSA-NCAM expressing cells after pre-incubation with peptide [1]: prevented its binding | Increase in the rate of migration of the neuronal precursors compared with the control without peptide [2]: +26% | Recognition of PSA-NCAM by MenB after pre-incubation with peptide (MenB anti-PSA antibody; FIG. 12C): did not prevent recognition of PSA-NCAM | Antibody specificity of peptide binding (30H12 versus MenB) (MenB anti-PSA antibody; in words): bind only to 30H12 | Binding of cyclic peptides to 30H12 antibody in ELISA (30H12 antibody): highest binding | Rate of migration of the neuronal precursors and chain-like arrangement ([3]; SVZ explants in Matrigel, FIG. 4): increases the rate of migration | PSA-dependence of the migration effect ([3]; with endo N treatment): abolished by endo N treatment | Axon guidance and fasciculation in retina in vivo (chick retina axons): axons guidance and fasciculation defects | Fasciculation [4, 5]: opposite effect on fasciculation | Neurite outgrowth [4, 5]: no effect on neurite outgrowth; also recorded: no significant increase | Axonal growth [4, 6]: significant increase in axonal growth | Fasciculation of axon bundles [4, 6]: clear defasciculation of axon bundles | Increase of neurite outgrowth compared to the controls ([4]; peptide in soluble form, mean length of the longest neurite): 21%
